Measurements as given in patent US20250074908A1, “SALT OF ROCK INHIBITOR, CRYSTAL FORM OF SALT, COMPOSITION, AND PHARMACEUTICAL USE” (WUHAN CREATERNA SCIENCE AND TECHNOLOGY CO., LTD., priority 2022, published 2025).

Tests used:
[1] = biological target: T1, ROCK2 kinase (Homo sapiens, UniProt O75116); test: In-vitro evaluation of ROCK2 kinase activity (HTRF KinEASE-STK); type: biochemical
T1 construct: purchased Invitrogen PV3759
Experimental: ROCK2 activity screening: ROCK2 activity was detected using a 96-well (Cisbio) time-resolved fluorometric assay. The assay for ROCK2 was performed in the following assay buffer: 5 mM MgCl2 (Sigma), 1 mM DTT (Sigma), and 1× kinase buffer. The kinase buffer was used for dilution. 7.5 μL of ROCK2 kinase (Invitrogen, PV3759) was first added to a 96-well microplate to achieve a final concentration of 0.4 ng/μL, and then […] of compound I (DMSO content: 1% (volume fraction)) was added. The mixture was incubated at room temperature for 0.5 h. To start the reaction, the kinase buffer was used to mix ATP (Aladdin) and the substrate STK-substrate 2-biotin. 7.5 μL of the mixed solution was added to the microplate to achieve final concentrations of 6.739 μM and 1 μM. The resulting mixture was incubated at room temperature for another 2 h. 5 mL of detection buffer was mixed with STK antibody-Cryptate, and then an appropriate volume of the mixture was mixed with an equal volume of streptavidin-XL665. 10 μL of the resulting mixture was added to the microplate to stop the reaction. After further incubation for about 1 h, the microplate was read on a Molecular Devices Spectra Max i3x multifunctional microplate reader. […]

[2] = Pharmacokinetic study in rats; type: in vivo, SD rats; conditions: male, SD, rat, in vivo, po, 10 mg/kg
Experimental: Compound I, 2-hydroxyethanesulfonate of compound I, ethanesulfonate (crystal form I) of compound I, tartrate of compound I, and sulfate of compound I were each accurately weighed, and the required volume of vehicle was added. The mixture was stirred for 5 min, then sonicated below 25° C. until no large particles were visible to the naked eye, and further stirred for 30 min until a homogeneous suspension was obtained. The suspension was then used for administration.
Male SPF-grade SD rats (Beijing Vital River Laboratory Animal Technology Co., Ltd.) were given compound I, the 2-hydroxyethanesulfonate of compound I, the ethanesulfonate of compound I (crystal form I), the tartrate of compound I, and the sulfate of compound I by single intragastric administration after an acclimation period (with free access to water and food). Blood was collected from the orbital venous plexus of the rats at 0.167 h, 0.5 h, 1 h, 2 h, 3 h, 4 h, 6 h, 9 h, 12 h, and 24 h after administration. Each blood sample was centrifuged at 3500×g for 10 min at 4° C. The supernatant was then collected, and the concentration of compound I in the plasma was measured by LC-MS/MS (AB Sciex TRIPLE QUAD 3500). The data were analyzed using a non-compartmental model in WinNonlin (version 5.2.1 Pharsight, Mountain View, CA) to obtain PK parameters.

[3] = biological target: T2, ROCK1 kinase (Homo sapiens, UniProt Q13464); test: In-vitro evaluation of ROCK1 kinase selectivity (HTRF KinEASE-STK); type: biochemical
T2 construct: purchased Invitrogen
Experimental: ROCK1 activity was detected using a 96-well (Cisbio) time-resolved fluorometric assay. The assay for ROCK1 was performed in the following assay buffer: 5 mM MgCl2 (Sigma), 1 mM DTT (Sigma), and 1× kinase buffer. The kinase buffer was used for dilution. 7.5 μL of ROCK1 kinase (Invitrogen) was first added to a 96-well microplate to achieve a final concentration of 0.4 ng/μL, and then 0.25 μL of the compound (DMSO content: 1%) was added. The mixture was incubated at room temperature for 0.5 h. To start the reaction, the kinase buffer was also used to mix ATP (Aladdin) and the substrate STK-substrate 2-biotin. 7.5 μL of the mixed solution was added to the microplate to achieve final concentrations of 3.53 μM and 1 μM. The resulting mixture was incubated at room temperature for another 2 h. 5 mL of detection buffer was mixed with STK antibody-Cryptate, and then an appropriate volume of the mixture was mixed with an equal volume of streptavidin-XL665. 10 μL of the resulting mixture was added to stop the reaction. After further incubation for about 1 h, the microplate was read on a Molecular Devices SpectraMax i3x multifunctional microplate reader. The kinase buffer, the STK-substrate 2-biotin, the detection buffer, the STK antibody-Cryptate, and the streptavidin-XL665 were all from HTRF KinEASE-STK kit (Cisbio, 1000 tests, 61GSTXLA).

[4] = In-vitro cytotoxicity assay, CCK-8 method; type: cell-based; conditions: human, HepG2 cells
Experimental: In-vitro cytotoxicity assay for compound I was performed in HepG2 cells using the CCK-8 method. HepG2 cells (Beina Bio) in the logarithmic growth phase were collected, the concentration of cell suspension was adjusted, and then the cells were plated on a 96-well cell culture plate at 50000 cells/well. The cells were then incubated in a cell incubator (5%, 37° C.) overnight. After 80%-90% cell confluence in the plate was achieved, medium change was performed, and then the test compound at each concentration gradient or vehicle (DMSO) was added. The resulting mixture was incubated in the cell incubator (5%, 37° C.) for 48 h. After the treatment was completed, the medium in the plate was discarded. The plate was washed twice with PBS, and a CCK-8 working solution (Beyotime) was added at 100 μL per well. The resulting mixture was then incubated at 37° C. for 1.5 h in the dark. The absorbance at OD450 nm was measured for each well on a microplate reader, and the CC50 value of each compound was analyzed and calculated.

[5] = Chemical stability on storage up to 3 months (HPLC purity), Table 13-4; type: physicochemical; conditions: for Purity (%), 230 nm, Month 1 / Purity (%), 230 nm, Month 3: sealed and protected from light
Experimental: B) The HPLC method used for the stability study was as follows:
The vials were sealed with tin foil and then separately placed under the conditions of 40° C. temperature/75% humidity or 25° C. temperature/60% humidity for about 3 months. The samples after being placed for 0 months, 2 weeks, 1 month and 3 months were taken and each dissolved in a diluent to prepare a solution at about 1.0 mg/mL, which was then tested for chemical stability by HPLC analysis using Shimadzu LC-20ADxr.

[6] = as above; type: physicochemical; conditions: 40° C./75% humidity, sealed and protected from light

T1 sequence (O75116 whole entry): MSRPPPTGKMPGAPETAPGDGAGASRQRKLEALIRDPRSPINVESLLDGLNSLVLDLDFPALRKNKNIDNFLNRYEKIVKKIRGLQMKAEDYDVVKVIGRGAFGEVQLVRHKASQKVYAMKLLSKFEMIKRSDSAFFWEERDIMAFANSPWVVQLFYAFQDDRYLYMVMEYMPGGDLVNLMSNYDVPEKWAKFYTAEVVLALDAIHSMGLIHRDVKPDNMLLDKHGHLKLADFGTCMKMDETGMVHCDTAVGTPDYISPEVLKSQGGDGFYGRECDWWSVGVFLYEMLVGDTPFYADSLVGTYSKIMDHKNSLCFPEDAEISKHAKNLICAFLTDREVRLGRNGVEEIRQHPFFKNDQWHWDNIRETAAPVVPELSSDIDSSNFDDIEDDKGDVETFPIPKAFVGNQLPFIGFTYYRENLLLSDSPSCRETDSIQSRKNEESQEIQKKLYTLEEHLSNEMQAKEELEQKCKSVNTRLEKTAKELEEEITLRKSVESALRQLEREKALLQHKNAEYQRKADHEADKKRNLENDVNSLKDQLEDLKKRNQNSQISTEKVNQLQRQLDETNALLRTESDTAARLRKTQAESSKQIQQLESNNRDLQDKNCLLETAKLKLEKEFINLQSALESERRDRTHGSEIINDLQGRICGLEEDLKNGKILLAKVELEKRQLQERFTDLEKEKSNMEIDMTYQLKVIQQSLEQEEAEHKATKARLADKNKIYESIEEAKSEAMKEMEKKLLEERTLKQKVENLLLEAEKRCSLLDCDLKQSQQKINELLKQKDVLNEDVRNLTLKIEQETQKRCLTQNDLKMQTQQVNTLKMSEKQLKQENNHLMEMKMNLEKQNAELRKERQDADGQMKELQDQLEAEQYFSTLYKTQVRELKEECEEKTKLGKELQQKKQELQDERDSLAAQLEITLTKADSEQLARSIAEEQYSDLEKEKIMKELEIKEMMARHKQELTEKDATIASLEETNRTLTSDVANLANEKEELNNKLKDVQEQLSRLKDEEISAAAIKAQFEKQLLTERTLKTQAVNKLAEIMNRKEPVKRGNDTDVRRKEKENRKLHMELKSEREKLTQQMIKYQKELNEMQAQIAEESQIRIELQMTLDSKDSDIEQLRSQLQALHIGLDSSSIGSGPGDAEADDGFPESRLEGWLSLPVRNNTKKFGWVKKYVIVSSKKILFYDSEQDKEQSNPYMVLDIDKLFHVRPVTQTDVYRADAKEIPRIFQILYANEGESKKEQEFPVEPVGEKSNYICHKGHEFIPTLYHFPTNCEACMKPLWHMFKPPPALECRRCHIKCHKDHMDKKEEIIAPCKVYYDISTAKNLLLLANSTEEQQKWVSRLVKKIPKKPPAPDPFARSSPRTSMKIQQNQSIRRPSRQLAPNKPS
T2 sequence (Q13464 whole entry): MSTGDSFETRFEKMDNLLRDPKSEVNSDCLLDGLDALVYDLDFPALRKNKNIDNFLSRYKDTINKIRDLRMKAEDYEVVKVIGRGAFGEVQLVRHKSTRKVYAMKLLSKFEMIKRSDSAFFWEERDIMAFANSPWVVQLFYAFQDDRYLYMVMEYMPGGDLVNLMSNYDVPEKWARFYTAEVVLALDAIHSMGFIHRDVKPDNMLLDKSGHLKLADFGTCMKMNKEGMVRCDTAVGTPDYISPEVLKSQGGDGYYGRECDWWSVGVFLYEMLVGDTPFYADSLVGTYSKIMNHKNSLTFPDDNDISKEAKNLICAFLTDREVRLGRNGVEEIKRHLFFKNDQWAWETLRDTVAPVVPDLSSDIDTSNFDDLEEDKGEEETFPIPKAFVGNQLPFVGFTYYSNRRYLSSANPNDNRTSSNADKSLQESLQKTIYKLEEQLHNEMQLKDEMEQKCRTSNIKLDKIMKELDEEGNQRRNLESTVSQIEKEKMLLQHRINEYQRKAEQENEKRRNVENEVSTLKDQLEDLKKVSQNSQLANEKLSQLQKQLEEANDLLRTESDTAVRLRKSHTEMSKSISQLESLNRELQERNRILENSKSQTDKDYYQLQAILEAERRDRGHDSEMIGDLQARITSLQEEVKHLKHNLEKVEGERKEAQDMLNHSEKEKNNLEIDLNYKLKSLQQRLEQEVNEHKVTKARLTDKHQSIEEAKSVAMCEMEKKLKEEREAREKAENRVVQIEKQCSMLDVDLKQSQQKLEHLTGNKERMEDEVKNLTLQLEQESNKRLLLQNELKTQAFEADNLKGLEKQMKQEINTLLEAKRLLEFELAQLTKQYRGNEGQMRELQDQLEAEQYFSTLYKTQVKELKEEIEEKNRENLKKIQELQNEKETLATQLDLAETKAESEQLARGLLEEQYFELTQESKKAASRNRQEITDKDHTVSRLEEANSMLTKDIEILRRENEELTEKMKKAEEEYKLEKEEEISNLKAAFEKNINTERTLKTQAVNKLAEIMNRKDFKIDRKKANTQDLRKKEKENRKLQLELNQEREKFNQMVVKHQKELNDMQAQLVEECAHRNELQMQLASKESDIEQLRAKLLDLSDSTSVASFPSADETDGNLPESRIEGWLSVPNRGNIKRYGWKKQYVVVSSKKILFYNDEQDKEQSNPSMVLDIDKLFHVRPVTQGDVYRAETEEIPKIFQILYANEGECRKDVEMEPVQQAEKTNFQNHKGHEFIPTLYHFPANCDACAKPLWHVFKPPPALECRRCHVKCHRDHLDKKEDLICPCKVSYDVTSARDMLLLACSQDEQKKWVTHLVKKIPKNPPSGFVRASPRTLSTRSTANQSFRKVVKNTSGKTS

IC50 [1]	AUC(0-t) [2]	Cmax [2]	IC50 [3]	stability in chemical properties ([5]; 25° C./60% humidity and 40° C./75% humidity (sealed and protected from light))	Purity (%), 230 nm, Month 1 ([5]; 25° C./60% humidity)	Purity (%), 230 nm, Month 3 ([5]; 25° C./60% humidity)	Purity (%), 230 nm, Month 1 ([5]; 40° C./75% humidity)	Purity (%), 230 nm, Month 3 ([5]; 40° C./75% humidity)	Purity (%), 230 nm, Day 0 ([5]; Day 0)	Purity (%), 230 nm, Month 2 [6]	Compound	CC50 at 48 h [4]
36.5 nM	2040 ng·h/mL	251 ng/mL	> 4500 nM								Cn1c(C(=O)N2CC(F)(F)C2)cc2c1CN(c1ncc(F)c(Nc3ccc(-c4cn[nH]c4)cc3)n1)CC2 [Compound I, (6-(4-((4-(1H-pyrazol-4-yl)phenyl)amino)-5-fluoropyrimidin-2-yl)-1-methyl-4,5,6,7-tetrahydro-1H-pyrrolo[2,3-c]pyridin-2-yl)(3,3-difluoroazetidin-1-yl)methanone]	> 100000 nM
				substantially stable	99.00%	99.02%	98.95%	99.04%	98.98%	99.18%	Cn1c(C(=O)N2CC(F)(F)C2)cc2c1CN(c1ncc(F)c(Nc3ccc(-c4cn[nH]c4)cc3)n1)CC2.O=C(O)C(O)C(O)C(=O)O [Crystal form I of tartrate]	
